Marks after values point to notes of the source that are not given here. Blank lines part the entries; values can stand above or below the molecule they belong to.
Key:
[1] = Antioxidant activity measurement (DPPH); assay type: biochemical; details: DPPH % after 60 minutes; for DPPH for moiety alone [%] ± SD, n = 3: free moiety, lower = more antioxidant
[2] = Viscosity and pH of formulations after steam sterilization; assay type: physicochemical; details: formulation after steam sterilization
Description: The gel is steam sterilized 10 minutes at 121° C. with an entire cycle of 35 minutes. For the viscosity, gels are measured with the rheological program presented before.
The target characteristics are a viscosity after heat sterilization of around 1000 [mPas], neutrality and isotonicity to plasma (around 280 [mOsmol]) in common with state of the art commercial formulations such as Ostenil©.

New-Zealand rabbits = test: Intra-articular biocompatibility test in rabbit; assay type: in vivo
Description: Twelve male New-Zealand rabbits are kept in individual cages 2 weeks after reception before injection. The day of injection, they are anesthetized with Ketamin©/Domitor©, their posterior articulations shaved and disinfected with Vetedine© soap and solution. 200 ul of the selected formulations are injected into the articulations. The rabbit is then revived with Atipam©. The formulations are randomized for rabbits as well as for articulations and injected blindly.
Twice a week, a clinical examination is performed comprising the following points. For the general state; vigilance (at distance from the cage: normal, diminished, sleepy, enhanced), movements (at distance from the cage: normal, diminished), limb ledge (at distance from the cage: yes, no), limp (at distance from the cage: yes, no), hair state: (smooth and shiny, dull, bristling, dirty zones, hairless zones), wound: (yes, no), abnormal secretion: (yes, no), mucosal color: (pink, blade, congested, cyanosed). For the injected joints; swelling (from 0 to 3, 3 being strongest swelling), flow at the injection site (0-3), heat (0-3), palpation pain (from 0 to 3), mobilization pain (0-3), redness (0-3), hematoma (0-3). An echography is also performed under anesthesia comprising the following […] (external lateral, internal lateral and proximal) according to a protocol published in the literature and provides information about the presence of liquid, osteophytes and any severe cartilage erosion. After one month observation, the rabbits are sacrificed with intra-muscular injection of Ketamin©/Domitor© and intra-cardiac Dolethal©. The articulations are dissected and photographed before and after china ink embodiment to assess the state of the rotula, condyl, tibia and trochlea cartilage by a visual analogue scale (VAS) expressed in percentage of the structure degraded and by osteophytis scoring (OS) giving the presence or absence of osteophytes (0: absent, 1: present).
The femoral and tibial parts are fixed in 10% formalin solution and decalcified with Kristenson solution from Chimie-Plus Laboratoire (Denice, France) during several weeks. Samples are cut in two parasagittal sections for medial femoral and tibial condyles (left and right) and then paraffin embedded and sectioned into 4 μm thick slices. Sections were stained with Safranin O-fast green for cartilage. Synovial membranes were fixed in 10% formalin solution, cut in two or three parallel sections, paraffin embedded and sectioned into 4 μm thick slices. Each paraffin block was sectioned in three slides [one stained with hematoxylin, eosin and saffron (HES), and two stained with hematoxylin and eosin (HE)]. Histological features were evaluated in a blinded fashion except for control rabbits. Histological lesions were evaluated and scored according the OARSI histopathology initiative; -recommendations for histological assessments of osteoarthritis in the rabbit (Osteoarthritis and cartilage 18 (2010) S53-S65). Microscopic scoring of cartilage alterations, two sections per condyle were evaluated allowing a semi-quantitative grading. Several parameters were evaluated: Safranin O-fast green staining, structure, chondrocytes density, cluster formation. For microscopic scoring of synovial alterations, three sections per synovial membrane were evaluated, allowing semi-quantitative grading. Several parameters were evaluated: synoviocytes proliferation, synoviocytes hypertrophy, granulocytic infiltration, lymphoplasmacytic infiltration, lymphoplasmacytic aggregates follicles, villous hyperplasia, proliferation of fibroblasts/fibrocytes, proliferation of blood vessels, cartilage/bone detritus presence and hemosiderosis.
The above mentioned formulations were tested in term of intra-articular biocompatibility in the rabbit model; Conjugated HA linked to 4AR (n=4), unconjugated HA mixed with 4AR (n=4), 4AR (n=4) and as controls; physiological serum (n=2), untreated (n=2) and Ostenil© (n=4).

[3] = reference [22]; cited from earlier work
[4] = Viscosity stability in an oxidative environment (Weissberger's oxidative system, CuCl2 + ascorbic acid); details: gel 1 %
[5] = Water solubility of the moieties; assay type: physicochemical; details: free moiety
[6] = HA conjugate (native HA), for 4AR first value, 14 % grafting

SMILES: Nc1ccc(O)cc1O [4AR, 4-aminoresorcinol]
- DPPH [%] ± SD, n = 3 ([1]; 4AR conjugate with 57 % grafting (second value of the cell)): 37%
- DPPH [%] ± SD, n = 3 [1, 6]: 71%
- DPPH for moiety alone [%] ± SD, n = 3 [1]: 28%
- pH [2]: 7.25
- Tibia OS (New-Zealand rabbits; 0 absent, 1 present, one month): 0%
- Trochlea OS (New-Zealand rabbits; 0 absent, 1 present, one month): 0%
- Rotula OS (New-Zealand rabbits; 0 absent, 1 small osteophyte present, one month): 0%
- Condyl OS, ext (New-Zealand rabbits; external, 0 absent, 1 present, one month): 0/0%
- Condyl VAS score, ext (New-Zealand rabbits; external, one month): 0/0%
- Tibia VAS score, ext (New-Zealand rabbits; external, one month): 0***/0*** %
- Condyl OS, int (New-Zealand rabbits; internal, 0 absent, 1 present, one month): 0/0%
- Condyl VAS score, int (New-Zealand rabbits; internal, one month): 0/0%
- Tibia VAS score, int (New-Zealand rabbits; internal, one month): 0***/0*** %
- Meniscus lesion (int/ext) (New-Zealand rabbits; one month): 0
- Synvovial membrane Fibrosis (New-Zealand rabbits; one month): 0
- Synvovial membrane Inflamation (New-Zealand rabbits; one month): 0
- Trochlea VAS score (New-Zealand rabbits; one month): 0-10* %
- Rotula VAS score (New-Zealand rabbits; percentage of structure degraded, one month after 200 ul intra-articular): 0%
- intra-articular biocompatibility (in words) (New-Zealand rabbits; single injection, one month evaluation): no sign of non-biocompatibility
- cytotoxicity (in words) [3]: potent cytotoxic agent
- gain of viscosity ([4]; during the 36 minutes of measurement, Weissberger oxidative system, n=1): 40%

SMILES: Nc1ccc(C(=O)O)c(O)c1 [4ASA, 4-aminosalicylic acid]
- DPPH [%] ± SD, n = 3 [1, 6]: 96%
- DPPH for moiety alone [%] ± SD, n = 3 [1]: 27%
- water solubility (in words) [5]: low water solubility

SMILES: Nc1ccc(O)c(C(=O)O)c1 [5ASA, 5-aminosalicylic acid]
- DPPH [%] ± SD, n = 3 [1, 6]: 67%
- DPPH for moiety alone [%] ± SD, n = 3 [1]: 34%

- water solubility (in words) [5]: solubility is low
SMILES: Cc1cc(=O)oc2cc(N)ccc12 [AMC]
- DPPH [%] ± SD, n = 3 [1, 6]: 61%
- DPPH for moiety alone [%] ± SD, n = 3 [1]: 87%

SMILES: Nc1ccccc1 [Aniline, aniline]
- DPPH [%] ± SD, n = 3 [1, 6]: 95%
- DPPH for moiety alone [%] ± SD, n = 3 [1]: 36%
- water solubility (in words) [5]: high water solubility

SMILES: CCOC(=O)[C@@H](N)CS [EECyst, ethylester cysteine]
- DPPH [%] ± SD, n = 3 [1, 6]: 41%
- DPPH for moiety alone [%] ± SD, n = 3 [1]: 6%

SMILES: NCCc1ccc(O)cc1 [Tyr, tyramin]
- DPPH [%] ± SD, n = 3 [1, 6]: 92%
- DPPH for moiety alone [%] ± SD, n = 3 [1]: 85%
- viscosity behaviour / degradation in oxidative environment (in words) ([4]; CuCl2 + ascorbic acid): more degraded than HA itself
